Assay results from patent publication US10064848B2, “Pyridic ketone derivatives, method of preparing same, and pharmaceutical application thereof” (Shanghai Hengrui Pharmaceutical Co., Ltd., priority 2013, dated 2018).

Tests used:
[1] = target: T1, MEK1 (Recombinant Human Protein) (Homo sapiens, UniProt Q02750); test: MEK1 kinase inhibition assay (Z'-LYTE Kinase Assay Kit-Ser/Thr 03 Peptide); assay type: biochemical; conditions: 4 hours at 37° C, read-out: IC50 for inhibiting MEK kinase (MEK1)
T1 construct: purchased Invitrogen PV3093
Experimental: MEK1 kinase activity was tested in vitro by the following method.
MEK kinase used in the assay: MEK1 (Recombinant Human Protein, Invitrogen, Catalog No. PV3093).
Kit used in the assay: Z′-LYTE™ Kinase Assay Kit-Ser/Thr 03 Peptide (Invitrogen, Catalog No. PV3176).
The following in vitro assay was used to determine the activity of the compounds of the present invention for inhibiting the […] MEK kinase. The test compound was dissolved in dimethyl sulfoxide to the desired concentration. 1× Buffer A (Invitrogen, Catalog No. PV3189) was prepared, ATP was diluted with 1× Buffer A to obtain 400 μM ATP solution, appropriate amounts of Z′-LYTE™ Ser/Thr 03 Peptide (Invitrogen, Catalog No. PV3200), MEK kinase (MEK1) Enzymes and 1× Buffer A were mixed, and appropriate amounts of Z′-LYTE™ Ser/Thr 03 phosphoPeptide substrate (Invitrogen, Catalog No. PV3215) and 1× Buffer A were formulated into a mixture to be tested. The 4% DMSO solution of the test compound was prepared from 1× buffer and DMSO solution of the test compound. 2.5 μL DMSO solution of the test compound was added to a reaction well, and then 1× Buffer A, 2.5 μL of 400 μM ATP solution, 5 μL of enzyme and substrate mixture were added to become a 10 μL of reaction system. The reaction system was incubated for 4 hours at 37° C., and a mixture was prepared according to Reagent A:Buffer B=1:1024. 5 μL of a mixture of Reagent A (Invitrogen, Catalog No. PV3295) and Buffer B (Invitrogen, Catalog No. P3127) was added to a reaction well, the reaction system was incubated for 60 minutes at 25° C. The fluorescence was read by a NovoStar ELISA with excitation wavelength: 400 nm, and emission wavelength: 445 nm and 520 nm.
The activity of the compounds of the present invention: The above assay was used to determine the biochemical activity of the compounds of the present invention for inhibiting MEK kinase (MEK1).

[2] = system: Colo205 cell; test: Proliferation inhibition on Colo205 (CCK8); assay type: cell-based; conditions: Homo sapiens, COLO 205, Colo205, 72 hours
Excerpt: Cell line used in the assay: Colo205 (Cell Bank of the Chinese Academy of Sciences, Catalog No. TCHu102).
The following in vitro cell assay is to determine the activity of the compounds of the present invention for inhibiting the proliferation of human colon cancer cell, and the activity is expressed as IC50. General programs of this kind of assay were as follows: First, the cell line to be tested (purchased from Cell Bank of the Chinese Academy of Sciences) was inoculated in a 96-well culture plate with a suitable cell concentration of 4000 cells/mL medium, and was cultured in a carbon dioxide incubator at 37° C., then grown overnight. The medium was replaced by new medium added with a series of concentrations (10000 nM, 1000 nM, 100 nM, 10 nM, 1 nM, 0.1 nM) of the test compound solutions. The plates were placed back in the incubator, and continuously cultured for 72 hours. After 72 hours, CCK8 (Cell Counting Kit-8, Catalog No.: CK04, purchased from colleagues chemical company) method was used to determine the proliferation inhibition activity of the test compounds. IC50 values were calculated from the inhibition data of the test compounds at a series of different concentrations.
The above assay was used to determine the biochemical activity of the compounds of the present invention.

[3] = target: T2, CYP1A2 (Homo sapiens, UniProt P05177); test: In vitro CYP enzyme inhibition, human liver microsomes; assay type: in vitro ADME; conditions: probe Phenacetin, single point method
T2 construct: from tissue; host or cells: human liver microsomes
T2 sequence (P05177 1-516): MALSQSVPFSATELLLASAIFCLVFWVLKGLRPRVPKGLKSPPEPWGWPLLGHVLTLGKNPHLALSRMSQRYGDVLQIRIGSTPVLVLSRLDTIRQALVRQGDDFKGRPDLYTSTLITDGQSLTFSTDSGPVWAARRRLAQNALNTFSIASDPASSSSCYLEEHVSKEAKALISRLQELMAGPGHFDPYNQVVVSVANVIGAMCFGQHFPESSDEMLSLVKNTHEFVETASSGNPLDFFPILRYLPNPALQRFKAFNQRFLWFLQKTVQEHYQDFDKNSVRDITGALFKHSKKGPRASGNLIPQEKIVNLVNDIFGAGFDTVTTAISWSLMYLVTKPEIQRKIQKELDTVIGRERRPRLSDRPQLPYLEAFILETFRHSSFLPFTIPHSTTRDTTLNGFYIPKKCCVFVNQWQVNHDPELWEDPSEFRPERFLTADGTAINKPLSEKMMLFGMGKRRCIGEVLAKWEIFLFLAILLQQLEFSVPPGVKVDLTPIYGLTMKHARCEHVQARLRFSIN
Experimental: (§1) Human liver microsome incubation system was used to reflect the activity of enzymes based on the amount of metabolites produced. Enzyme inhibition of the test compounds was investigated on CYP1A2, CYP2C9, […], CYP3A4m, CYP3A4t and CYP2C19, and IC50 values (a concentration of the test compound that is required for 50% inhibition of enzyme activity) were measured. […] The appropriate amount of test compound standard sample was weighed, and diluted with DMSO to 50 mM to obtain stock solution I. The stock solution I was diluted with PBS to 100 μM to obtain the reaction liquid which is to be used in incubation. [table] The reaction mixture was prepared: 60 μL [table] The above mixture was preincubated for 5 minutes at 37° C., followed by addition of 40 μL of NADPH (2.5 mM, PBS formulation). The mixture solution was incubated for 20 minutes at 37° C. All incubated samples were set to double samples. 300 μL ice-cold acetonitrile was added to terminate the reaction. The reaction solution was added with 100 μl internal standard, mixed uniformly, and centrifuged for 10 minutes at 3500 rpm. The supernatant was transferred to the LC-MS/MS analysis. The activity of enzymes was reflected by the production amount of metabolites. Using a single point method, the formula was calculated as follows: According to the known literature: IC50>10 μM belongs to weaker inhibition, 1 μM<IC50<10 μM belong to moderate inhibition, IC50<1 μM belong to strong inhibition.

[4] = target: T3, CYP2C19 (Homo sapiens, UniProt P33261); test: as above; assay type: in vitro ADME; conditions: probe (S)-Mephenytoin, single point method
T3 construct: from tissue; host or cells: human liver microsomes
Experimental: as §1

[5] = target: CYP2C6 (Homo sapiens, UniProt P10635); test: as above; assay type: in vitro ADME; conditions: single point method
Experimental: as §1

[6] = target: T4, CYP2C9 (Homo sapiens, UniProt P11712); test: as above; assay type: in vitro ADME; conditions: probe Diclofenac, single point method
T4 construct: from tissue; host or cells: human liver microsomes
Experimental: as §1

[7] = target: T5, CYP3A4m (Homo sapiens, UniProt P08684); test: as above; assay type: in vitro ADME; conditions: probe Midazolam, single point method
T5 construct: from tissue; host or cells: human liver microsomes
Experimental: as §1

[8] = target: T6, CYP3A4t (Homo sapiens, UniProt P08684); test: as above; assay type: in vitro ADME; conditions: probe Testosterone, single point method
T6 construct: from tissue; host or cells: human liver microsomes
Experimental: as §1

T1 sequence (Q02750 whole entry): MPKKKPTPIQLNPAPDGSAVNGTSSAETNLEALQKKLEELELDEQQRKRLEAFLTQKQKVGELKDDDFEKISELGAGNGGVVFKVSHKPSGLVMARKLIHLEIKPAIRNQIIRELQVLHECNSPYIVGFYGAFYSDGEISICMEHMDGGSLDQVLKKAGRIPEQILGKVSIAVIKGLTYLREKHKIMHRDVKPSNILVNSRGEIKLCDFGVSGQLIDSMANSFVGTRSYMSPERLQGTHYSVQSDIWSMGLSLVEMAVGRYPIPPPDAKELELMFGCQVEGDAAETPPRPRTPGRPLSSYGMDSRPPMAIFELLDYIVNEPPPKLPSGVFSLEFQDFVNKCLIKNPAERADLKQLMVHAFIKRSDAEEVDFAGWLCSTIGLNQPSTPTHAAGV
Chain of CYP2C6 (P10635 whole entry): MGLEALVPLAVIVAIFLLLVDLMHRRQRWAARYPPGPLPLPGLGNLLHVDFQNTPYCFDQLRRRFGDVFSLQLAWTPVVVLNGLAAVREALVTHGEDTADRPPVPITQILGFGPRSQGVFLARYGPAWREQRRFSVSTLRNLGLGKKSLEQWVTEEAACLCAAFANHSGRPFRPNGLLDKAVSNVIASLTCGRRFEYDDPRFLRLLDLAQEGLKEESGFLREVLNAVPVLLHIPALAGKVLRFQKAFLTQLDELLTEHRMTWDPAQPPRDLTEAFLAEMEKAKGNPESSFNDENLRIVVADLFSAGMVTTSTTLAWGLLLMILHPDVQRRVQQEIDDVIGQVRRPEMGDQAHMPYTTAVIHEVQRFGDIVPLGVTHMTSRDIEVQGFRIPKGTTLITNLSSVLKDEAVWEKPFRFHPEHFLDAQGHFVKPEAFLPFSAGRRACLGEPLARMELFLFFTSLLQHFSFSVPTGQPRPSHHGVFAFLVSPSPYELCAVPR
T3 sequence (P33261 whole entry): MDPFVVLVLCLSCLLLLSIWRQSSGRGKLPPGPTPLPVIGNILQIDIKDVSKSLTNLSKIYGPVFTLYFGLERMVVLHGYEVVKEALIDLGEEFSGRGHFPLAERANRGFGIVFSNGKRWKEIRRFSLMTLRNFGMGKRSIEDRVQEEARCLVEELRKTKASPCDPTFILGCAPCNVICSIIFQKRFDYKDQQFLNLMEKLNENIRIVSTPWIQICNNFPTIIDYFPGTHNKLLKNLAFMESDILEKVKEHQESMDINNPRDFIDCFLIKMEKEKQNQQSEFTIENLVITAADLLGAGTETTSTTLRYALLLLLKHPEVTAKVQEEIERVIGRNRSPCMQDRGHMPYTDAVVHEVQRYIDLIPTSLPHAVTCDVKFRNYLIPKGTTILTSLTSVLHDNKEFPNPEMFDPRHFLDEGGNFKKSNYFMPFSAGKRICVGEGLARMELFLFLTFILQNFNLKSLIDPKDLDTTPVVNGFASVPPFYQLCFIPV
T4 sequence (P11712 whole entry): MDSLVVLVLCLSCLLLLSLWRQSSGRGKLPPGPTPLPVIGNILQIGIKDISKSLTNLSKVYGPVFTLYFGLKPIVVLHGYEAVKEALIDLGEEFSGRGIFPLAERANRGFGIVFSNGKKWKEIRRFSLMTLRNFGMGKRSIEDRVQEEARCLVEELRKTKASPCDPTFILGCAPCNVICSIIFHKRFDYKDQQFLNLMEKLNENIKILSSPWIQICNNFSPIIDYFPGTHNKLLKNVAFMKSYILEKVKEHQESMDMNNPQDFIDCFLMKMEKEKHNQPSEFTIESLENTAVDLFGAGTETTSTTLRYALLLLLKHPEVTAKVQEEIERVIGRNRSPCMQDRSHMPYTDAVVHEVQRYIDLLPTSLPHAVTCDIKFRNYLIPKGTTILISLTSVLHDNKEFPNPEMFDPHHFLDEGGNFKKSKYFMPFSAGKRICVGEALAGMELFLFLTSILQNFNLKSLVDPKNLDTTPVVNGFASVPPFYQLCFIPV
T5 sequence (P08684 whole entry): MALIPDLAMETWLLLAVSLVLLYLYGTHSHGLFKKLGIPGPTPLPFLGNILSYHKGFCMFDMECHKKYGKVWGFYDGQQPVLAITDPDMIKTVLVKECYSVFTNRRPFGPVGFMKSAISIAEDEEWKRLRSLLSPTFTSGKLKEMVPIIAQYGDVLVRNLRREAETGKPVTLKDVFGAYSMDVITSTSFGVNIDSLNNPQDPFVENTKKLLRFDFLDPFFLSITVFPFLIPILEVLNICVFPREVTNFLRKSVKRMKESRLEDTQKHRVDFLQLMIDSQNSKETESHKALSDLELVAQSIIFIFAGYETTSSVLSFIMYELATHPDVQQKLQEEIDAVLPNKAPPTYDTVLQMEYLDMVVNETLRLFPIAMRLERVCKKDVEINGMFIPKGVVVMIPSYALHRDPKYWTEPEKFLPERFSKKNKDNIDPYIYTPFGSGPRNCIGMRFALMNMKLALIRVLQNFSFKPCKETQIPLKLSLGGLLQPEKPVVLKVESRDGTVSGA
T6 sequence (P08684 whole entry): as above

IC50 [1] [nM] | IC50 [2] [nM] | IC50 [3] [nM] | IC50 [4] [nM] | IC50 [5] [nM] | IC50 [6] [nM] | IC50 [7] [nM] | IC50 [8] [nM] | SMILES
4 | 0.8 | > 10000 | > 10000 | > 50000 | > 50000 | > 50000 | > 50000 | CC(=O)Nc1cccc(Oc2cc(=O)n(C)c(Nc3ccc(I)cc3F)c2C(N)=O)c1C [Example 4, 4-(3-acetamido-2-methylphenoxy)-2-((2-fluoro-4-iodophenyl)amino)-1-methyl-6-oxo-1,6-dihydropyridine-3-carboxamide]
6 | – | > 10000 | > 10000 | > 10000 | > 10000 | > 10000 | > 10000 | Cc1cncc(Oc2cc(=O)n(C)c(Nc3ccc(I)cc3F)c2C(N)=O)c1 [Example 30, 2-((2-fluoro-4-iodophenyl)amino)-1-methyl-4-((5-methylpyridin-3-yl)oxy)-6-oxo-1,6-dihydropyridine-3-carboxamide]
2.9 | 1.7 | – | – | – | – | – | – | Cc1ccc(Oc2cc(=O)n(C)c(Nc3ccc(I)cc3F)c2C(N)=O)c(C)c1 [Example 20, 4-(2,4-dimethylphenoxy)-2-((2-fluoro-4-iodophenyl)amino)-1-methyl-6-oxo-1,6-dihydropyridine-3-carboxamide]
6.2 | 4.2 | – | – | – | – | – | – | Cc1c(Cl)cccc1Oc1cc(=O)n(C)c(Nc2ccc(I)cc2F)c1C(N)=O [Example 14, 4-(3-chloro-2-methylphenoxy)-2-((2-fluoro-4-iodophenyl)amino)-1-methyl-6-oxo-1,6-dihydropyridine-3-carboxamide]
